Data published in ChEMBL document CHEMBL6096718, “Discovery of Rezatapopt (PC14586), a First-in-Class, Small-Molecule Reactivator of p53 Y220C Mutant in Development” (ACS Med Chem Lett, 2025).

Each molecule was assayed on Cellular tumor antigen p53 (Homo sapiens), P04637 [Y220C] (assay: Binding affinity to recombinant His-tagged p53 Y220C mutant DNA binding domain (94 to 312 residues) (unknown origin) assessed as induction of biotin-labeled consensus DNA binding by measuring […] concentration required to increase DNA binding incubated for 48 mins by TR-FRET assay). Conditions: filed as activator.

| EC150 | Compound |
| --- | --- |
| 8 nM | COc1cc(S(C)(=O)=O)ccc1NCC#Cc1cc2c(N[C@@H]3CCN(C)C[C@@H]3F)cccc2n1CC(F)(F)F |
| 9 nM | COc1cc(S(C)(=O)=O)ccc1NCC#Cc1cc2c(N[C@@H]3CCN(C)C[C@@H]3F)cccc2n1CC(F)(F)F (racemic) |
| 20 nM | COc1cc(S(C)(=O)=O)ccc1NCC#Cc1cc2c(N[C@H]3CCN(C)C[C@H]3F)cccc2n1CC(F)(F)F |
| 20 nM | COc1cc(S(C)(=O)=O)ccc1NCC#Cc1cc2c(N[C@@H]3CCN(C)C[C@H]3F)cccc2n1CC(F)(F)F (racemic) |
